Values of other authors, collected in patent US20030082102A1, “Radioactive platinum complexes for cancer treatment” (priority 2001, published 2003).
Like-named read-outs stand apart in the source and are kept apart here.

Columns and labels:
tissue culture = details: non-radioactive drug with external radiation
mammalian cells = details: for radiopotentiation / potentiation of chemotherapy effectiveness: cell culture, Howell 1994
[1] = tracer quantities

| SMILES | Radiation enhancer in vitro? (tissue culture) | radiopotentiation / potentiation of chemotherapy effectiveness (mammalian cells) | other results |
| --- | --- | --- | --- |
| N.N.O=C([O-])C1(C(=O)[O-])CCC1.[Pt+2] [Carboplatin, 1,1-Cyclobutanedicarboxylate diamine platinum (II)] | Yes | – | – |
| CC(C)N.CC(C)N.[Cl-].[Cl-].[OH-].[OH-].[Pt] [Iproplatin, Cis-dichloro,trans-dihydroxybis-isopropylamine platinum (IV)] | Yes | – | – |
| CC(=O)[O][Pt]([NH2])([Cl])([Cl])([NH]C1CCCCC1)[O]C(C)=O [JM216] | Yes | – | – |
| [NH2][Pt]([NH2])([Cl])[Cl] [^195mPt-cisplatinum] | – | no potentiation of chemotherapy effectiveness | radiotoxicity above and beyond chemical toxicity (mammalian cells; cell culture studies, Howell et al 1994): no radiotoxicity above and beyond its chemical toxicity; tumor drug level (tumor uptake) ([1]; intra-arterial infusion, patients with nonresectable hepatoma): 34-55 % of given dose; tumor drug level (tumor uptake) ([1]; intravenous route): < 5 % of given dose |
| N.N.[Cl][Pt+2][Cl] [^195mPt-trans-cisplatinum] | – | showed radiopotentiation | – |
